Assay results taken from patent US20220387432A1 (priority 2019, published 2022).

Key:
[1] = tested on: PrP^Sc-induced synaptotoxicity on hippocampal neurons; conditions: cited from earlier work
[2] = tested on: amyloid β-derived diffusible ligand (ADDL) induced synaptotoxicity; conditions: cited from earlier work
[3] = tested on: PrP^Sc-induced synaptotoxicity on hippocampal neurons; test: cells; assay type: cell-based, mice
[4] = tested on: PrP^Sc-induced synaptotoxicity on hippocampal neurons; assay type: cell-based, mice
CKIδ = CKIδ (Homo sapiens, UniProt P48730); conditions: Verkaar et al. (2011); cited from earlier work
CKIε = CKIε (Homo sapiens, UniProt P49674); conditions: Verkaar et al. (2011); cited from earlier work
CKIε, sequence (P49674 whole entry, species assumed): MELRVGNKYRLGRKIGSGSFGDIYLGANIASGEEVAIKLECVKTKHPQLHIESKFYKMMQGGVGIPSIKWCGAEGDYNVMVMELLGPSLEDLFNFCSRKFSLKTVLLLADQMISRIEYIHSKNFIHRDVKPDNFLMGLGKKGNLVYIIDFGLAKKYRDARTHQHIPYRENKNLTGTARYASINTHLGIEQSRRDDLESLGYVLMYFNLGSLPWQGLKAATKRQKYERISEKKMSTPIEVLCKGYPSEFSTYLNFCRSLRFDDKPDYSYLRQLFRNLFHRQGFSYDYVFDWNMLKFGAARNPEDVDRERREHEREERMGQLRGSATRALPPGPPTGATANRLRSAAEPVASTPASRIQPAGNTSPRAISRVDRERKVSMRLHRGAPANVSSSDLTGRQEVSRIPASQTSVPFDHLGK

CKIδ, sequence (P48730 whole entry, species assumed): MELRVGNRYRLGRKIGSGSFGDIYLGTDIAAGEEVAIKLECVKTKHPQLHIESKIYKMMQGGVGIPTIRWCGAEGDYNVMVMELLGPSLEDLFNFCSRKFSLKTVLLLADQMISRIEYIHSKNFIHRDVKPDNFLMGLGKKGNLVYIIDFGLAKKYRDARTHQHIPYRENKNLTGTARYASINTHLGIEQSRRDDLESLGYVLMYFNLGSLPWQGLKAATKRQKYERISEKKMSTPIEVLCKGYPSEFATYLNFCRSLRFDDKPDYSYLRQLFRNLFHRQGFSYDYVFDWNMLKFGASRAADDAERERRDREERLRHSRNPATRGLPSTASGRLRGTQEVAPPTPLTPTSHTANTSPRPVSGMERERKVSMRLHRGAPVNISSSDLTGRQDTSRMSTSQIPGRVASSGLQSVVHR

Row | Compound | Effect on PrP^Sc-induced retraction of dendritic spines / synaptotoxicity [1] | Effect on Aβ oligomer induced dendritic spine retraction / loss [2] | Dose dependence of effect on PrP^Sc-induced spine loss [3] | Effect on PrP^Sc effects on dendritic spine number [3] | EC50 ([3]; Mus musculus, Hippocampal neuron, 24 h, read-out: EC50 of dose response curve for the rescuing effect on spine number) [µM] | Effect on PrP^Sc effects on mEPSC properties (frequency and amplitude) [4] | Effect against ADDL induced synaptotoxicity [2] | Effect on spine retraction caused by PrP^Sc [3] | Reversal of dendritic spine retraction accrued during first 24 hrs of PrP^Sc treatment [3] | Inhibition of casein kinase isoform CKIδ (CKIδ) | Inhibition of casein kinase isoform CKIε (CKIε)
1 | Cc1cccc(C#Cc2ccccc2)n1 [MPEP] | had no influence | blocked | – | – | – | – | – | – | – | – | –
2 | O=c1ncn2nc(Sc3ccc(F)cc3F)ccc2c1-c1c(Cl)cccc1Cl [neflamapimod] | – | – | dose dependent | blocked | 0.0289 | blocked | showed positive effects | – | – | – | –
3 | COc1nccc(-c2c(-c3ccc(F)cc3)ncn2C2CCC(O)CC2)n1 (centres unmarked) [SB239063] | blocked | no significant effect | – | – | – | – | ineffective | prevented spine retraction | able to reverse the dendritic spine retraction | reported to inhibit | reported to inhibit
